Measured values published in patent US7713960B2, “Inhibition of the Raf/Mek/P-Erk pathway for treating cancer” (University of South Florida, priority 2005, dated 2010).
Structures can show the parent of a compound that is named as a salt.

Legend:
Type in all cases: cell-based, human
[1] = test system: MDA-MB-231 cells; test: Anchorage-independent growth (soft agar assay), MDA-MB-231
Experimental: (§1) Soft Agar Assay—Anchorage independent growth assays were performed as previously described (Lerner et al., 1997). Briefly, agar was diluted to 0.3% in propagation media containing 20,000 cells and either vehicle or ARA-211 and 1 ml of cell/agar mixture plated on top of 2 ml of a 0.6% layer of agar in medium alone. Cells were grown for three to four weeks at 37° C., 10% Co2 and were fed weekly with 100 μl per well of media/treatment. Quantification of colonies was done using a GS-700 scanning densitometer.

[2] = test system: MDA-MB-231 cells; test: Alamar Blue proliferation assay, MDA-MB-231; settings: MDA-MB-231 with CA-Mek; 10 μM, 48 hours
Experimental: Cell Lines and Transfections—All cell lines used were obtained from American Type Tissue Collection (ATCC), (Manassas, Va.), or from the DCTD Tumor Repository, (Frederick, Md.). Propagation was carried out according to ATCC protocols. Propagation media was obtained from Invitrogen Corporation (Carlsbad, Calif.). DNA transfections were carried out using TransIT-LT1 transfection reagent (Takara Mirus, Madison, Wis.) according to the manufacturer's protocol. Briefly, 4×10^5 MDA-MB-231 cells were grown to approximately 70% confluency in medium supplemented with 10% FBS (Atlanta Biologicals, Atlanta, Ga.) in the absence of antibiotics. For transfection, LT1 was pre-incubated in 200 μl per transfection in Opti-MEM (Invitrogen) for 20 minutes prior to addition of plasmid. […]
Alamar Blue proliferation assay—For proliferation assays using exogenous constitutively activated MEK or the B2AR antagonist ICI-118.551, Alamar Blue metabolism assay used to determine cell viability according to the manufacturers protocol (Biosource, Camarillo, Calif.). […] Media/Alamar Blue was removed from the cells and aliquoted into 96 well plates (100 μl per well) and fluorescence read on a Wallac Victor 2 plate reader at excitation 540 nm, and emission 615 nm.

[3] = test system: A-549 cells; test: Anchorage-independent growth (soft agar assay), A-549; settings: n = 6
Experimental: as §1

[4] = test system: A-549 cells; test: Anchorage-dependent growth (MTT assay), A-549
Experimental: (§2) MTT Assay—2000 cells per well were plated into 96 well tissue culture plates, and the cells were allowed to attach overnight at 37° C. with 10% CO2. Cells were then treated with increasing concentrations of ARA-211, or vehicle (DMSO) and incubated for four days. At that time treatment medium was removed and replaced with 100 μl of lmg/ml MTT (Sigma-Aldrich, St. Louis, Mo.) in media and incubated at 37° C., 10% CO2 for 3 hours. After 3 hours the MTT media was removed and replaced with 100 μl/well of DMSO, rocked at room temperature for 5 minutes, then absorbance read at 540 nm on a micro-plate reader.

[5] = test system: P-Erk 1/2; test: P-Erk 1/2 levels (Western blotting), SF-539
Experimental: (§3) Western Blotting—Treated cell samples were lysed in 30 mM HEPES, 10 mM NaCl, 5 mM MgCl2, 25 mM NaF, 1 mM EGTA, 1% Triton-X-100, 10% Glycerol, 2 mM Sodium orthovanidate, 10 μg/mL aprotinin, 10 μg/mL soybean trypsin inhibitor, 25 μg/mL leupeptin, 2 mM phenylmethylsulfonylfluoride (PMSF), 6.4 mg/mL p-nitrophenylphosphate for 30 minutes at 4° C., and proteins run on SDS-PAGE gels then transferred to nitrocellulose membranes. Membranes were blocked in either 5% milk in PBS, pH 7.4, containing 0.1% Tween-20 (PBS-T) or 1% BSA in TBS, pH 7.5, containing 0.1% Tween-20 (TBS-T). Phospho-STAT3 and phospho-AKT antibodies were diluted in 1% BSA in TBS-T while phospho-c-Raf, phospho-Mek, and phospho-p44/p42 MAPK antibodies (Cell Signaling) were diluted in 5% milk in PBS-T for either 1 hour at room temperature or overnight at 4° C. HRP-conjugated secondary antibodies (Jackson ImmunoResearch, West Grove, Pa.) were diluted in 5% milk in PBS-T or TBS-T at a 1:1000 dilution for one hour at room temperature. Western blots results were visualized using enhanced chemiluminescence. Stripping of the membranes for reblotting was done using stripping buffer (62.5 mM Tris pH 7.6, 2% SDS, 0.7% 2-mercaptoethanol) at 50° C. for 30 minutes.

[6] = test system: MDA-MB-231 cells; test: Total cellular cAMP measurement, MDA-MB-231
Experimental: Total cellular cAMP measurement—The measurement of total cellular cAMP was done using a cAMP Biotrak ™ Enzymeimmunoassay (EIA) system (Amersham Biosciences, Piscataway, N.J.) according to the manufacturer's protocol. Briefly, 2000 cells were plated into each well of a 96 well plate. The next day cells were treated with increasing concentrations of ARA-211 or with vehicle for one hour. Alternatively, MDA-MB-231 cells were pre-treated with antagonists to the α1 (Prazosin, Sigma), α2 (Yohimbine, Sigma), β1 (Metoprolol, Sigma), and β2 (ICI 118.551, Sigma) adrenergic receptors at 100 nM for 15 minutes followed by treatment with 10 μM ARA-211 for 45 minutes. Cells were then lysed directly in the wells using the supplied lysis buffer. The lysate was transferred to a 96-well cAMP ELISA plate, and results were quantified using a Wallac Victor 2 plate reader.

[7] = test system: SNB-19 cells; test: Anchorage-dependent growth (MTT assay), SNB-19; settings: n = 3
Experimental: as §2

[8] = test system: ACHN cells; test: Anchorage-independent growth (soft agar assay), ACHN
Experimental: as §1

[9] = test system: P-Erk 1/2; test: P-Erk 1/2 levels (Western blotting), MDA-MB-231
Experimental: as §3

## CC(C)(C)NCC(O)c1ccc(O)c(CO)n1 (stereo not shown) [ARA-211, 2-hydroxymethyl-3-hydroxy-6-(1-hydroxy-2-tert-butylaminoethyl) pyridine, dihydrochloride]
[1]
  Anchorage Independent Growth (% Inhibition): 82.7 ± 7.9%
[2]
  inhibition of tumor growth in cells ectopically expressing constitutively activated Mek-1: resistant
[3]
  Anchorage Independent Growth (% Inhibition): 0 (n = 6) %
[4]
  Anchorage Dependent Growth (% Inhibition): 9.6 ± 6.1%
[5]
  P-Erk ½ (% Inhibition): 100%
[6]
  cAMP (Fold Induction): 16.7 ± 5.4 Fold
  formation of cAMP: induced the formation of CAMP
[6]; β1, β2, α1, α2 antagonists 100 nM pre-treatment, 10 μM ARA-211
  adrenergic receptor selectivity (which antagonist blocks cAMP induction): highly selective for β2 adrenergic receptors
[7]
  Anchorage Dependent Growth (% Inhibition): 0 (n = 3) %
[8]
  Anchorage Independent Growth (% Inhibition): 97.9 ± 1.2%
[9]; MDA-MB-231
  P-Erk ½ (% Inhibition): 100%
[9]; MDA-MB-231, at 10 nM
  levels of P-Erk 1/2: suppressed potently
[9]; MDA-MB-231 with CA-Mek, 10 μM, 48 hours
  inhibition of P-Erk 1/2 in cells ectopically expressing constitutively activated Mek-1: resistant
